In PubChem BioAssay (NCI):
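96-well plates; 48 h exposure; 5 concentrations. Endpoints by linear interpolation between flanking doses. Not reached: highest tested concentration assigned. GI50 marks 50% less growth. TGI is the concentration that stops growth completely.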

Experiments:
Assay in all cases: NCI tumour cell line growth inhibition, 48 h
[1] = system: A498 renal
[2] = system: MDA-MB-435
[3] = system: SF-295 CNS
[4] = system: MALME-3M melanoma
[5] = system: RXF 393 renal
[6] = system: SK-OV-3 ovarian
[7] = system: NCI-H226 lung
[8] = system: HOP-92 NSCLC
[9] = system: BT-549 breast
[10] = system: NCI-H460 lung

SMILES | TGI [1] [µM] | TGI [2] [µM] | TGI [3] [µM] | TGI [4] [µM] | TGI [5] [µM] | TGI [6] [µM] | TGI [7] [µM] | TGI [8] [µM] | TGI [9] [µM] | TGI [10] [µM] | GI50 [1] [µM] | GI50 [2] [µM] | GI50 [3] [µM] | GI50 [4] [µM] | GI50 [5] [µM] | GI50 [6] [µM] | GI50 [10] [µM] | GI50 [7] [µM] | GI50 [8] [µM]
OCC(O)C(O)C(O)C(/C=N\Nc1ncnc2ccc(Br)cc12)=N/Nc1ncnc2ccc(Br)cc12 (stereo unspecified) | > 100 | > 100 | > 100 | 57 | > 100 | > 100 | > 100 | > 100 |  |  |  |  |  |  |  |  |  |  | 
CS(=O)(=O)O.[Ag] | 40 | 9.78 | > 100 | 3.79 | 42 | 36.4 | 51.4 |  | 38 | 49.5 |  |  |  |  |  |  |  |  | 
O=C(O)C1SCCS1 | > 100 | > 100 | > 100 | > 100 |  | > 100 | > 100 | > 100 | > 100 | > 100 |  |  |  |  |  |  |  |  | 
CN(c1ccccc1Cl)S(=O)(=O)c1ccccc1[N+](=O)[O-] |  | > 100 | > 100 | > 100 | 90 | > 100 | > 100 |  | > 100 | > 100 |  |  |  |  |  |  |  |  | 
COc1ccc2c(c1)CC[C@@H]1[C@@H]2CC[C@]2(C)C(=O)/C(=C/c3cc(OC)c(OC)c(OC)c3)C[C@@H]12 | > 100 | > 100 | 74.6 | 35 | 86.8 | > 100 |  | 45.4 | 63.9 | > 100 |  |  |  |  |  |  |  |  | 
C/C=C\C(CC(=O)NCCC1CN(C(=O)c2ccccc2)c2ccccc21)CC(=O)OC (stereo unspecified) | > 100 | > 100 | > 100 | > 100 | > 100 | > 100 |  | > 100 | > 100 | > 100 |  |  |  |  |  |  |  |  | 
OCCO[P+]1(OCCO)n2c3ccc2C(c2ccccc2)=C2C=CC(=N2)C(c2ccccc2)=c2ccc(n21)=C(c1ccccc1)C1=NC(=C3c2ccccc2)C=C1 | 1.49 | 0.132 | 0.513 |  | 0.563 | 0.569 |  | 0.399 | 0.305 | 1.04 |  |  |  |  |  |  |  |  | 
N#Cc1c(N2CCN(c3ccc([N+](=O)[O-])cc3)CC2)[n+](=O)c2ccc(Cl)cc2n1[O-] | 2.44 | 8.07 | > 28.3 | 6.31 | > 22.7 | > 23.9 | 13.8 |  | 1.61 | 3.7 |  |  |  |  |  |  |  |  | 
c1ccc(C2=C(c3ccccc3)P(c3ccccc3)C2)cc1 (stereo unspecified) | > 100 | > 100 | > 100 | > 100 | > 100 | > 100 | > 100 | > 100 |  | > 100 |  |  |  |  |  |  |  |  | 
COc1ccc2c(c1)-c1oc3ccccc3c(=O)c1CO2 |  | > 100 | > 100 | > 100 |  | > 100 | > 100 |  | 96.8 |  |  |  |  |  |  |  |  |  | 
O=C(C#Cc1cn(C2CC(O)C(CO)O2)c(=O)[nH]c1=O)c1ccccc1 (stereo unspecified) |  | > 100 | > 100 | 24.8 | 52.7 | > 100 | > 100 | 53.2 | > 100 | > 100 |  |  |  |  |  |  |  |  | 
COC(=O)c1ccccc1CC(Cc1ccccc1)C(=O)OC (stereo unspecified) | > 100 | > 100 | > 100 | > 100 | 70.9 | > 100 | > 100 |  | > 100 | > 100 |  |  |  |  |  |  |  |  | 
Clc1ncnc2c1ncn2CCCCCCCCCCCCn1cnc2c(Cl)ncnc21 | 24.6 |  | 28.8 |  | 32.2 | 33.3 | 24.5 | 19.4 |  | 31.8 |  |  |  |  |  |  |  |  | 
Nc1nc(SCCC/C=C/I)nc2c1ncn2C1OC(CO)C(O)C1O (stereo unspecified) | > 202 |  | > 202 | > 202 |  | > 202 | > 202 | > 202 |  | > 202 |  |  |  |  |  |  |  |  | 
CCC(C)C1(O)OC2CC3(C)OC(=CC3=O)/C(C)=C\C3OC(=O)C1(C)C32 (stereo unspecified) | 81.9 | > 100 | 60.9 |  |  | > 100 | 63 | 31.3 | 12.8 | 57.9 |  |  |  |  |  |  |  |  | 
CCS(=O)(=O)c1c2cc(OC)ccc2nc2ccc(OC)cc12 | > 100 | > 100 | > 100 | > 100 | > 100 | > 100 | > 100 | > 100 |  | > 100 |  |  |  |  |  |  |  |  | 
CCOC12SC(=Nc3ccc(C)cc3)NN1C(=S)N(C)N=C2C (stereo unspecified) | > 100 |  | > 100 |  | > 100 |  | > 100 | > 100 |  | > 100 |  |  |  |  |  |  |  |  | 
COC(=O)CCN(CCC(=O)OC)C1CC1 | > 100 | > 100 | > 100 | > 100 | > 100 | > 100 | > 100 | > 100 |  | > 100 |  |  |  |  |  |  |  |  | 
COc1cc(C(SCc2ccccc2)SCc2ccccc2)ccc1O | > 10 |  | > 10 | > 10 | > 10 | > 10 | > 10 | > 10 |  | > 10 |  |  |  |  |  |  |  |  | 
O=C(Nc1cccc(-n2ccc3c(NC(=O)c4ccccc4)nccc32)c1)c1cc(N2CCOCC2)cc(C(F)(F)F)c1 | 0.729 | 0.0688 | 2.16 | > 100 | 0.159 | > 100 |  | > 26.2 |  | > 36.9 | 0.0315 | 0.0253 | 0.039 | 1.25 | 0.0325 | 0.142 | 0.0374 | 0.36 | 0.3
CN1CC2CC(C1)c1cccc(=O)n1C2 (stereo unspecified) |  | > 100 | > 100 | > 100 | > 100 | > 100 |  | > 100 | > 100 | > 100 |  |  |  |  |  |  |  |  | 
Cc1ccc2nc(Cl)c(/C=N/N3C(=O)/C(=C/c4ccc(N(C)C)cc4)N=C3c3ccccc3)cc2c1 | > 100 | 65.8 | > 100 |  |  | > 100 |  | > 100 | > 100 | > 100 |  |  |  |  |  |  |  |  | 
CN1CCCCC(C(O)(c2ccccc2)c2ccccc2)C1=O (stereo unspecified) | > 100 |  | > 100 | > 100 | > 100 | > 100 | > 100 | > 100 |  | > 100 |  |  |  |  |  |  |  |  | 
